Measured values published in US4742053A, “3-Isoquinoliniomethyl cephalosporin derivatives” (Banyu Pharmaceutical Co., Ltd., priority 1984, dated 1988).
Converted amounts (≈) assume the structure as drawn. Where two headings read alike, the source gives them in different places.

Assays:
Assay in all cases: MIC by agar plate dilution method
Assay type in all cases: cell-based
P. vulgaris OB1043 = details: Proteus vulgaris, OB1043, P. vulgaris OB1043; 10^6 CFU/ml; read-out: Minimum Inhibitory Concentration
Method: (§1) The minimum inhibitory concentrations (MIC: μg/ml) of the compounds of the present invention against various microorganisms were measured by an agar plate dilution method (inoculum size: 10^6 CFU/ml) by using Sensitivity Disk Agar (Nissui) in comparison with Cefotaxime and Ceftazidime as comparative compounds.
(§2) Minimum Inhibitory Concentration (μg/ml; 10^6 CFU/ml)

P. vulgaris No. 33 = details: Proteus vulgaris
Method: as §1, §2

A. calcoaceticus No. 14 = details: Acinetobacter calcoaceticus, NO.14, A. calcoaceticus No. 14; 10^6 CFU/ml; read-out: Minimum Inhibitory Concentration
Method: as §1, §2

P. aeruginosa AK109 = details: Pseudomonas aeruginosa, AK109, P. aeruginosa AK109; 10^6 CFU/ml; read-out: Minimum Inhibitory Concentration
Method: as §1, §2

E. coli ML1410/Rte16 = details: Escherichia coli, ML1410/RTE16, read-out: Minimum Inhibitory Concentration, E. coli ML1410/Rte16; 10^6 CFU/ml
Method: as §1, §2

S. aureus JS-1 = details: Staphylococcus aureus, JS1; S. aureus JS-1; 10^6 CFU/ml; read-out: Minimum Inhibitory Concentration
Method: as §1, §2

E. coli W3630/Rms212 = details: Escherichia coli, W3630/RMS212, read-out: Minimum Inhibitory Concentration, E. coli W3630/Rms212; 10^6 CFU/ml
Method: as §1, §2

P. aeruginosa AKR17 = details: Pseudomonas aeruginosa, AKR17, P. aeruginosa AKR17; 10^6 CFU/ml; read-out: Minimum Inhibitory Concentration
Method: as §1, §2

P. maltophilia IID 1275 = details: Stenotrophomonas maltophilia, IID1275; P. maltophilia IID 1275; 10^6 CFU/ml; read-out: Minimum Inhibitory Concentration
Method: as §1, §2

E. coli CSH = details: Escherichia coli, 10^6 CFU/ml, read-out: Minimum Inhibitory Concentration
Method: as §1, §2

E. coli NIHJJC-2 = details: Escherichia coli, NIHJJC2, E. coli NIHJJC-2; 10^6 CFU/ml; read-out: Minimum Inhibitory Concentration
Method: as §1, §2

E. cloaceae Nek 39 = details: E. cloaceae Nek 39; 10^6 CFU/ml; read-out: Minimum Inhibitory Concentration
Method: as §1, §2

E. coli W3630/Rms213 = details: Escherichia coli, W3630/RMS213, read-out: Minimum Inhibitory Concentration, E. coli W3630/Rms213; 10^6 CFU/ml
Method: as §1, §2

P. mirabilis JY10 = details: Proteus mirabilis; P. mirabilis JY10; 10^6 CFU/ml; read-out: Minimum Inhibitory Concentration
Method: as §1, §2

K. pneumoniae No. 42 = details: Klebsiella pneumoniae; K. pneumoniae No. 42; 10^6 CFU/ml; read-out: Minimum Inhibitory Concentration
Method: as §1, §2

E. coli C/Rms149 = details: Escherichia coli, read-out: Minimum Inhibitory Concentration, E. coli C/Rms149; 10^6 CFU/ml
Method: as §1, §2

C. freundii No. 7 = details: Citrobacter freundii; C. freundii No. 7; 10^6 CFU/ml; read-out: Minimum Inhibitory Concentration
Method: as §1, §2

S. marcescens No. 16-2 = details: Serratia marcescens
Method: as §1, §2

P. cepacia 23 = details: Burkholderia cepacia; P. cepacia 23; 10^6 CFU/ml; read-out: Minimum Inhibitory Concentration
Method: as §1, §2

E. coli CSH2 = details: Escherichia coli, 10^6 CFU/ml, read-out: Minimum Inhibitory Concentration
Method: as §1, §2

S. aureus NIHJJC-1 = details: Staphylococcus aureus
Method: as §1, §2

[1] = P. vulgaris No. 33, 10^6 CFU/ml, read-out: Minimum Inhibitory Concentration
[2] = NO.162, S. marcescens No. 16-2, 10^6 CFU/ml, read-out: Minimum Inhibitory Concentration
[3] = NIHJJC1, S. aureus NIHJJC-1, 10^6 CFU/ml, read-out: Minimum Inhibitory Concentration
[4] = NO.33, read-out: Minimum Inhibitory Concentration

SMILES	MIC (P. vulgaris OB1043) [mg/L]	MIC (A. calcoaceticus No. 14) [mg/L]	MIC (P. aeruginosa AK109) [mg/L]	MIC (E. coli ML1410/Rte16) [mg/L]	MIC (S. aureus JS-1) [mg/L]	MIC (E. coli W3630/Rms212) [mg/L]	MIC (P. aeruginosa AKR17) [mg/L]	MIC (P. maltophilia IID 1275) [mg/L]	MIC (E. coli CSH) [mg/L]	MIC (E. coli NIHJJC-2) [mg/L]	MIC (E. cloaceae Nek 39) [mg/L]	MIC (E. coli W3630/Rms213) [mg/L]	MIC (P. mirabilis JY10) [mg/L]	MIC (K. pneumoniae No. 42) [mg/L]	MIC (E. coli C/Rms149) [mg/L]	MIC (C. freundii No. 7) [mg/L]	MIC (S. marcescens No. 16-2; [2]) [mg/L]	MIC (P. cepacia 23) [mg/L]	MIC (E. coli CSH2) [mg/L]	MIC (S. aureus NIHJJC-1; [3]) [mg/L]	other results
CC(C)(ON=C(C(=O)NC1C(=O)N2C(C(=O)[O-])=C(C[N+]3(C)CCc4cc(O)c(O)cc4C3)CSC12)c1csc(N)n1)C(=O)O (stereo not drawn) [Ex. 15, 7-[(Z)-2-(2-aminothiazol-4-yl)-2-(1-carboxy-1-methylethoxyimino)acetamido]-3-(6,7-dihydroxy-2-methyl-1,2,3,4-tetrahydro-2-isoquinolinium)methyl-3-cephem-4-carboxylate]	0.05 (≈ 0.0773 µM)	0.78 (≈ 1.21 µM)	0.025 (≈ 0.0387 µM)	0.025 (≈ 0.0387 µM)	100 (≈ 155 µM)	0.025 (≈ 0.0387 µM)	0.05 (≈ 0.0773 µM)	3.12 (≈ 4.82 µM)	0.05 (≈ 0.0773 µM)	0.025 (≈ 0.0387 µM)	< 0.006	0.025 (≈ 0.0387 µM)	0.1 (≈ 0.155 µM)	0.05 (≈ 0.0773 µM)	0.0125 (≈ 0.0193 µM)	0.2 (≈ 0.309 µM)	0.39 (≈ 0.603 µM)	0.025 (≈ 0.0387 µM)	0.025 (≈ 0.0387 µM)	12.5 (≈ 19.3 µM)	MIC (P. vulgaris No. 33; [1]): 1 mg/L (≈ 1.55 µM)
C[N+]1(CC2=C(C(=O)[O-])N3C(=O)C(NC(=O)C(=NOC4CCCC4)c4csc(N)n4)C3SC2)CCc2cc(O)c(O)cc2C1 (stereo not drawn) [Ex. 16-D, 7-[(Z)-2-(2-aminothiazol-4-yl)-2-cyclopentyloxyiminoacetamido]-3-(6,7-dihydroxy-2-methyl-1,2,3,4-tetrahydro-2-isoquinolinium)methyl-3-cephem-4-carboxylate]	0.2 (≈ 0.318 µM)	1.56 (≈ 2.48 µM)	0.05 (≈ 0.0795 µM)	0.025 (≈ 0.0398 µM)	12.5 (≈ 19.9 µM)	0.0125 (≈ 0.0199 µM)	0.2 (≈ 0.318 µM)	12.5 (≈ 19.9 µM)	0.1 (≈ 0.159 µM)	0.1 (≈ 0.159 µM)	0.0125 (≈ 0.0199 µM)	0.1 (≈ 0.159 µM)	0.2 (≈ 0.318 µM)	0.1 (≈ 0.159 µM)	0.025 (≈ 0.0398 µM)	1.56 (≈ 2.48 µM)	–	0.0125 (≈ 0.0199 µM)	0.1 (≈ 0.159 µM)	–	MIC (P. vulgaris No. 33; [1]): 0.1 mg/L (≈ 0.159 µM); MIC (S. marcescens No. 16-2; NO.162, read-out: Minimum Inhibitory Concentration): 1.56 mg/L (≈ 2.48 µM); MIC (S. aureus NIHJJC-1; NIHJJC1, read-out: Minimum Inhibitory Concentration): 1.56 mg/L (≈ 2.48 µM)
C[N+]1(CC2=C(C(=O)[O-])N3C(=O)C(NC(=O)C(=NOC4(C(=O)O)CC4)c4csc(N)n4)C3SC2)CCc2cc(O)c(O)cc2C1 (stereo not drawn) [Ex. 17-E, 7-[(Z)-2-(2-aminothiazol-4-yl)-2-(1-carboxy-1-cyclopropoxyimino)acetamido]-3-(6,7-dihydroxy-2-methyl-1,2,3,4-tetrahydro-2-isoquinolinium)methyl-3-cephem-4-carboxylate]	≤ 0.05	0.1 (≈ 0.155 µM)	≤ 0.05	≤ 0.05	> 25	≤ 0.05	0.1 (≈ 0.155 µM)	1.56 (≈ 2.42 µM)	≤ 0.05	≤ 0.05	≤ 0.05	≤ 0.05	≤ 0.05	≤ 0.05	≤ 0.05	1.56 (≈ 2.42 µM)	0.39 (≈ 0.605 µM)	≤ 0.05	≤ 0.05	12.5 (≈ 19.4 µM)	MIC (P. vulgaris No. 33; [4]): ≤ 0.05 mg/L
C[N+]1(CC2=C(C(=O)[O-])N3C(=O)C(NC(=O)C(=NOC4(C(=O)O)CCCC4)c4csc(N)n4)C3SC2)CCc2cc(O)c(O)cc2C1 (stereo not drawn) [Ex. 18-G, 7-[(Z)-2-(2-aminothiazol-4-yl)-2-(1-carboxy-1 cyclopentyloxyimino)acetamido]-3-(6,7-dihydroxy-2-methyl-1,2,3,4-tetrahydro-2-isoquinolinium)methyl-3-cephem-4-carboxylate]	1.56 (≈ 2.32 µM)	3.12 (≈ 4.64 µM)	0.2 (≈ 0.297 µM)	0.2 (≈ 0.297 µM)	> 100	0.39 (≈ 0.58 µM)	0.78 (≈ 1.16 µM)	100 (≈ 149 µM)	0.78 (≈ 1.16 µM)	0.39 (≈ 0.58 µM)	0.1 (≈ 0.149 µM)	0.78 (≈ 1.16 µM)	6.25 (≈ 9.29 µM)	1.56 (≈ 2.32 µM)	0.78 (≈ 1.16 µM)	0.78 (≈ 1.16 µM)	12.5 (≈ 18.6 µM)	0.2 (≈ 0.297 µM)	0.78 (≈ 1.16 µM)	25 (≈ 37.2 µM)	MIC (P. vulgaris No. 33; [1]): 6.25 mg/L (≈ 9.29 µM)
C[N+]1(CC2=C(C(=O)[O-])N3C(=O)C(NC(=O)C(=NOC4(C(=O)O)CCC4)c4csc(N)n4)C3SC2)CCc2cc(O)c(O)cc2C1 (stereo not drawn) [Ex. 19, 7-[(Z)-2-(2-aminothiazol-4-yl)-2-(1-carboxy-1-cyclobutoxyimiino)acetamide]-3-(6,7-dihydroxy-2-methyl-1,2,3,4-tetrahydro2-isoquinolinium)methyl-3-cephem-4-carboxylate]	0.05 (≈ 0.0759 µM)	0.2 (≈ 0.304 µM)	0.025 (≈ 0.038 µM)	0.025 (≈ 0.038 µM)	100 (≈ 152 µM)	0.025 (≈ 0.038 µM)	0.1 (≈ 0.152 µM)	3.12 (≈ 4.74 µM)	0.05 (≈ 0.0759 µM)	0.05 (≈ 0.0759 µM)	0.1 (≈ 0.152 µM)	0.025 (≈ 0.038 µM)	0.1 (≈ 0.152 µM)	0.05 (≈ 0.0759 µM)	0.025 (≈ 0.038 µM)	0.78 (≈ 1.18 µM)	0.39 (≈ 0.592 µM)	0.0125 (≈ 0.019 µM)	0.05 (≈ 0.0759 µM)	25 (≈ 38 µM)	MIC (P. vulgaris No. 33; [4]): 0.05 mg/L (≈ 0.0759 µM)
